We go through 2 substances from patent publication US20230346969A1, “INTERMEDIATE FOR PREPARING ANTIBODY-DRUG CONJUGATE (ADC), PREPARATION METHOD THEREFOR, AND USE THEREOF” (priority 2020, published 2023).

In series [1] the target is Human trophoblast cell surface antigen 2 (Trop-2), on tumor cell lines (human) (UniProt P09758). Description: flow cytometry, 5 ug/mL hRS7 + PE anti-human IgG; cell line CFPAC-1 (pancreas). Background: Flow cytometry measures light scatter and fluorescence of single cells or particles in a stream.
Series [2] has the same target. Description: flow cytometry, 5 ug/mL hRS7 + PE anti-human IgG; cell line printed 'CPAC-1' (pancreas; probably CFPAC-1).
A further series concerns BXPC-3. Briefly: Cell viability assay (CCK-8). The settings on record: ADCs; CCK-8, 96 hours; cell RMCA [sic], Pancreas; read-out: IC50 (95% Cl). Format: cell-based. The procedure: (§1) Cell viability was determined using Cell Counting Kit 8 (CCK-8). Cells were seeded into 96-well plates at 3000-10000 cells/well. After incubation overnight, drugs were added at different concentrations. Plates were incubated in a 5% CO2, 37° C. humidified chamber for 96 hours. CCK8 reagent was added thereto and the plates were placed back to the incubator until the absorbance at 450 nm of untreated control cells was greater than 1.0. Growth inhibition was measured as the percent growth relative to untreated cells. Dose response curve was generated from the mean values of two or three tests, and IC50 values were calculated using Prism GraphPad software.
(§2) The anti-tumor efficacy of different payloads on different tumor cell lines was detected by CCK-8, and the results are shown in FIG. 5.

For the next series, the system named is CFPAC-1. Description: Cell viability assay (CCK-8). The conditions noted are these: ADCs; CCK-8, 96 hours; cell CPAC-1 [sic], Pancreas; read-out: IC50 (95% Cl). Format: cell-based. The procedure: as §1, §2
Another series relates to COLO205. Description: Cell viability assay (CCK-8). Format: cell-based. The settings on record: ADCs; CCK-8, 96 hours; cell printed 'COXC28', Colon; read-out: IC50 (95% Cl). The procedure: as §1, §2
The next series concerns Capan-1. Briefly: Cell viability assay (CCK-8). The class given is cell-based. The settings on record: ADCs; CCK-8, 96 hours; Cxoo-1 [sic], Pancreas; read-out: IC50 (95% Cl). The procedure:
as §1, §2

A further series concerns HCC1806. Briefly: Cell viability assay (CCK-8). The class given is cell-based. The settings on record: ADCs; CCK-8, 96 hours; 'HOC1906' [sic], Mamary; read-out: IC50 (95% Cl). As for the experimental part: as §1, §2
Another series deals with HT29. Description: Cell viability assay (CCK-8). The class given is cell-based. The conditions noted are these: ADCs; CCK-8, 96 hours; cell '3128' [sic], Colon; read-out: IC50 (95% Cl). As for the experimental part: as §1, §2
A further series concerns MDA-MB-231. Description: Cell viability assay (CCK-8). The class given is cell-based. The conditions noted are these: ADCs; CCK-8, 96 hours; cell 'SRM-K9-231' [sic], Mamary; read-out: IC50 (95% Cl). As for the experimental part: as §1, §2
The next series deals with MDA-MB-468. Briefly: Cell viability assay (CCK-8). Format: cell-based. The settings on record: ADCs; CCK-8, 96 hours; SRM-M9-409, Mammary; read-out: IC50 (95% Cl). The procedure: as §1, §2
For another series, the system named is NCI-H1688. Briefly: Cell viability assay (CCK-8). Format: cell-based. The settings on record: ADCs; CCK-8, 96 hours; cell 'HCl-11685' [sic], Lung; read-out: IC50 (95% Cl). The procedure:
as §1, §2

A further series has as its system NCIH2452. Briefly: Cell viability assay (CCK-8). Format: cell-based. The settings on record: ADCs; CCK-8, 96 hours; cell 'HOC2401' [sic], Lung; read-out: IC50 (95% Cl). The procedure: as §1, §2
Another series deals with SCLC-21H. Description: Cell viability assay (CCK-8). Format: cell-based. The settings on record: ADCs; CCK-8, 96 hours; SRM-C-21H; read-out: IC50 (95% Cl). As for the experimental part:
as §1, §2

The subject of another series is SK-MES-1. Briefly: Cell viability assay (CCK-8). Format: cell-based. The settings on record: ADCs; CCK-8, 96 hours; cell 'SK-WSS-7' [sic], Lung; read-out: IC50 (95% Cl). The procedure: as §1, §2
Another series concerns SKBR3. Description: Cell viability assay (CCK-8). Format: cell-based. The conditions noted are these: ADCs; CCK-8, 96 hours; 'SKERS' [sic], Mammary; read-out: IC50 (95% Cl). As for the experimental part: as §1, §2
Series [3] relates to mixture of Trop-2-positive tumor cells BXPC-3 and Trop-2-negative tumor cells NCIH1688. Description: Bystander effect: transplanted tumor from mixture of BXPC-3 and NCIH1688 cells. The class given is in vivo, BALB/c-nu/nu mice. The settings on record: 3 mg/kg, transplanted tumors heterogeneously expressing Trop-2. The source says: (§3) Five-week-old female athymic BALB/c nu/nu mice were purchased from Charles River Company (Shanghai, China), and mice were randomly divided into 5-6 mice/group. Animal handling and procedures were approved and performed in accordance with the requirements of the Institutional Animal Care and Use Committee (IACUC) of Shanghai Institute of Materia Medica, Chinese Academy of Sciences. All models were inoculated subcutaneously on the side of mice. BXPC-3, HCC1806 and NCIH1688 cells were established by injecting and homogenizing 5 × 10^6 cells in Matrigel matrix. COLO205 cells were established by injecting and suspending 1 × 10^7 cells in Matrigel matrix. After the tumor volume reached about 200 mm^3, the tumor-bearing mice were randomly divided into treatment groups and a control group according to the tumor volume. Each drug was administered intraperitoneally. […] The percentage of inhibition was calculated by the following formula: (1-average tumor volume of the treatment group/average tumor volume of the control group)×100%. Toxicity of the different treatment groups was assessed by monitoring weight loss.
(§4) A mixture of Trop-2-positive tumor cells BXPC-3 and Trop-2-negative tumor cells NCIH1688 or NCIH1688 cells alone were inoculated into BALB/c-nu/nu mice (FIG. 1e, right panel), and the “bystander effect” of hRS7-VK-PTX was detected in a mouse transplanted tumor model.

A further series concerns NCIH1688 cells. Description: Transplanted tumor from NCIH1688 cells alone (not expressing Trop-2). Format: in vivo, BALB/c-nu/nu mice. The settings on record: hRS7-VK-PTX 10 mg/kg, hRS7-VK-MMAE 3 mg/kg.
Description: as §3, §4

Series [4] in a line: Adverse effects and weight loss of mice treated in the efficacy models. The class given is in vivo, BALB/c nu/nu mice. The conditions noted are these: hRS7-VK-MMAE 3 mg/kg; hRS7-VK-SN38 3 or 10 mg/kg; PTX alone. The source says: Five-week-old female athymic BALB/c nu/nu mice were purchased from Charles River Company (Shanghai, China), and mice were randomly divided into 5-6 mice/group. Animal handling and procedures were approved and performed in accordance with the requirements of the Institutional Animal Care and Use Committee (IACUC) of Shanghai Institute of Materia Medica, Chinese Academy of Sciences. All models were inoculated subcutaneously on the side of mice. BXPC-3, HCC1806 and NCIH1688 cells were established by injecting and homogenizing 5 × 10^6 cells in Matrigel matrix. COLO205 cells were established by injecting and suspending 1 × 10^7 cells in Matrigel matrix. After the tumor volume reached about 200 mm^3, the tumor-bearing mice were randomly divided into treatment groups and a control group according to the tumor volume. Each drug was administered intraperitoneally. Mice were injected at doses of 3 or 10 mg/kg (10 mL/kg). Tumor volume was defined as length × ½ × width × width. The percentage of inhibition was calculated by the following formula: (1-average tumor volume of the treatment group/average tumor volume of the control group)×100%. Toxicity of the different treatment groups was assessed by monitoring weight loss.

Series [5] can be described thus: Dose tolerability, single intravenous dose acute toxicity. The settings on record: single intravenous dose 60 mg/kg, BALB/c mice. Format: in vivo. The procedure: Dose tolerability assay was performed in BALB/c mice (3 mice per dose). The drug was given in a single intravenous dose. The injection doses of hRS7-VK-PTX were 60, 80 and 100 mg/kg, and the injection doses of hRS7-VK-MMAE were 60 and 80 mg/kg, respectively. Toxicity was assessed by observing mouse behavior, weight loss and survival. The weight change rate (%) was calculated as: (body weight - body weight before treatment)/(body weight before treatment) × 100%.
The safety of relatively high doses of hRS7-VK-PTX in BALB/c mice was studied by an acute toxicity experiment with single intravenous administration in mice.

UniProt P09758, sequence (P09758 27-323): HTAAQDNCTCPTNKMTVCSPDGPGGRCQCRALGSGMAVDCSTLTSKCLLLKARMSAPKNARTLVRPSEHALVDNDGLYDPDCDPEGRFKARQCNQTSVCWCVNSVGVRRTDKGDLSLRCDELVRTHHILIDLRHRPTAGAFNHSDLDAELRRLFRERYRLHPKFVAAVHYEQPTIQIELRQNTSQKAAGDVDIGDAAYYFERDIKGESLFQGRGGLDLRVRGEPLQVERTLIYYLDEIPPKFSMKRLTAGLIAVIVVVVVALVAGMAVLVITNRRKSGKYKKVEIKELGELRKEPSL

For Humanized Trop-2 antibody hRS7, the MFI amounted to 35400 MFI in series [1] and 3840 MFI in [2].

hRS7-VK-MMAE: the IC50 (in general, the concentration that inhibits the measured activity by half) in the series on BXPC-3 was 0.0124 nM; in the series with CFPAC-1, more than 300 nM; with COLO205, more than 300 nM; in the series with Capan-1, more than 300 nM; in the series with HCC1806, 0.0174 nM; with HT29, approximately 250 nM. Further, the IC50 with MDA-MB-231 is more than 300 nM; with MDA-MB-468, 0.0645 nM; with NCI-H1688 it was approximately 3.76 nM; in the series with NCIH2452, approximately 1.21 nM; in the series with SCLC-21H, 0.0324 nM; in the series with SK-MES-1, more than 325 nM. In addition, in the series with SKBR3, the IC50 was approximately 2.24 nM. Besides, the “tumor growth inhibition index (TGI)” value in [3] is listed as 91.7%. Moreover, in the series on NCIH1688 cells, the “killing effect on transplanted tumors not expressing Trop-2” value was “had a killing effect”. Besides, the “adverse effects or weight loss in treated mice, relative to hRS7-VK-PTX (none)” value in series [4] is on record as “stark contrast”. For the same substance, the adverse reactions entry in series [5] is recorded as “severe adverse reactions”. Moreover, the body weight loss result in series [5] is reported as “more than 15%”.
